# In US4156737A, “P-Aminomethyl-benzene-sulfonamide derivatives, process for their preparation and applications thereof” (priority 1977, dated 1979):
# Structures can show the parent of a compound that is named as a salt.
# What was measured:
# [1] = tested on: experimentally induced burns in male Sprague-Dawley rats; assay: Protective action on experimentally induced burns; assay type: in vivo; settings: for percent death rate of the burnt animals: after 48 hrs, versus reference animals or equivalent dosages of p-aminomethyl-benzene-sulfonamide; for protection compared with p-aminomethyl-benzene-sulfonamide: local; for protection compared with p-aminomethyl-benzene-sulfonamide / protective action against experimentally induced burns: 500 mg/kg; for protective action against experimentally induced burns: prior local administration
# Experimental: The seriousness of the lesion thus induced is evaluated by means of the intravenous injection of Evans Blue, a vital dye.
# skin of rabbits = assay: Topical application on the skin of rabbits (tolerance); assay type: in vivo
# Description: (§1) High dosages of said products, suspended in suitable excipients, could be applied without any evidence of toxic symptons.
# (§2) Application of said products was effected on the skin of animals both after depilation and after depilation and abrasion, so as to obtain continuous skin lesions.
# treated animals = assay: Chronic toxicity, laboratory, organ and histological examinations of the treated animals; assay type: in vivo, rats and rabbits
# Description: In particular, no modification was found on examination of the weight increase, of the differential leucocyte count, of azotemia, of the transaminases and of urinary excretion.
# Similarly, no modification was detected on anatomopathologic and physiological examinations conducted at the level of the main organs of the treated animals.
# Pseudomonas = assay: Anti-bacterial activity, agar dilutions on Mueller-Hinton medium, Pseudomonas; assay type: cell-based
# Experimental: (§3) Various tests were used to determine the anti-bacterial activity of the products of Examples 1 and 2 with respect to p-aminomethyl-benzene-sulfonamide. Said tests were effected according to the agar dilutions on Mueller-Hinton medium. The inoculum is prepared by means of an automatic Multipoint Inoculation apparatus, with a 24 hrs broth culture diluted to 1/10.
# (§4) The test materials are suspended in a Twin solution.
# (§5) The following germ strains were used: E. coli 130; E. coli 3671; E. coli K 12; E. coli 334; Pseudomonas 66/5; Pseudomonas 630412; Pseudomonas Paffoni; Staphylococcus 209 P; Staphylococcus 153; Pseudomonas vulgaris 66/24; Proteus marg. 66/68; Proteus mirab. 564; Proteus mirab. 250; Serrata marcescens 67/14; Salmonella 29582; Salmonella gr. B; Providencia 70/13.
# E. coli = assay: Anti-bacterial activity, agar dilutions on Mueller-Hinton medium, E. coli; assay type: cell-based
# Experimental: as §3, §4, §5
# [2] = tested on: germ strains (E. coli, Pseudomonas, Staphylococcus, Proteus, Serrata marcescens, Salmonella, Providencia); assay: Anti-bacterial activity, agar dilutions on Mueller-Hinton medium, all germ strains; assay type: cell-based; settings: versus p-aminomethyl-benzene-sulfonamide
# Experimental: as §3, §4, §5
# [3] = tested on: holes punctured through the ears of New Zealand rabbits; assay: Action on cicatrization of holes punctured through the ears of rabbits; assay type: in vivo; settings: 10% suspension applied locally around ear hole; versus reference animals or p-aminomethyl-benzene-sulfonamide
# Experimental: To evaluate the healing action of the products of Examples 1 and 2 holes of equal diameter were punctured through the ears of New Zealand rabbits, after which the time required for cicatrization of said holes to occur was determined in untreated reference rabbits, in rabbits treated locally around the hole punctured through the ear with a 10% p-aminomethyl-benzene-sulfonamide suspension or with a suspension of identical concentration of the products of Examples 1 and 2.
# skin of rats = assay: Topical application on the skin of rats (tolerance); assay type: in vivo
# Description: as §1, §2
# Staphylococcus = assay: Anti-bacterial activity, agar dilutions on Mueller-Hinton medium, Staphylococcus; assay type: cell-based
# Experimental: as §3, §4, §5
# mice = assay: LD50 in mice, intraperitoneal route (acute toxicity); assay type: in vivo; settings: for toxicity: general statement introducing LD50
# [4] = as above; assay type: in vivo; settings: mouse, in vivo, ip; mice, intraperitoneal route
# [5] = Hygroscopicity and stability of the isolated powder; assay type: physicochemical; settings: white powder
# Experimental: The material is allowed to rest at a temperature of 5° C. for 24 hours, after which the resulting product is filtered off.
Compound,percent death rate of the burnt animals [1],protection compared with p-aminomethyl-benzene-sulfonamide [1],protective action against experimentally induced burns [1],"tolerance and apparent toxicity after topical application (skin of rabbits; rabbit, in vivo)",histological examination of skin samples (treated animals; in vivo),susceptibility of species (Pseudomonas),susceptibility of species (E. coli),inhibiting action on the growth of the germ colonies [2],tissue regeneration and cicatrization [3],"tolerance and apparent toxicity after topical application (skin of rats; rat, in vivo)",susceptibility of species (Staphylococcus),toxicity (mice),LD50 [4] [mg/kg],"tolerance and apparent toxicity after topical application (skin of rabbits; skin of rabbits, topical)","histological examination of skin samples (treated animals; chronic topical treatment, inflammatory or degenerative modification)","tolerance and apparent toxicity after topical application (skin of rats; skin of rats, topical)",hygroscopicity and stability [5],"LD50 (mice; mice, intraperitoneal route) [mg/kg]"
"NCc1ccc(S(N)(=O)=O)cc1 [Example 1, p-aminomethyl-benzene-sulfonamide, silver salt]",lower,superior to that exerted by p-aminomethyl-benzene-sulfonamide,"exerts a protective action against experimentally induced burns, by inhibiting or decreasing the intensity and the seriousness of the local lesions",equally well tolerated and free from any apparent toxicity,failed to disclose any modification of inflammatory or degenerative type,particularly susceptible,particularly susceptible,higher inhibiting action at lower concentrations than p-aminomethyl-benzene-sulfonamide,much more rapid than in the reference animals or in the animals treated with p-aminomethyl-benzene-sulfonamide,equally well tolerated and free from any apparent toxicity,particularly susceptible,very low toxicity,55,,,,,
"p-aminomethyl-benzene-sulfonamide, zinc salt [Example 2]",lower,superior to that exerted by p-aminomethyl-benzene-sulfonamide,"exerts a protective action against experimentally induced burns, by inhibiting or decreasing the intensity and the seriousness of the local lesions",,,particularly susceptible,particularly susceptible,higher inhibiting action at lower concentrations than p-aminomethyl-benzene-sulfonamide,much more rapid than in the reference animals or in the animals treated with p-aminomethyl-benzene-sulfonamide,,particularly susceptible,very low toxicity,,equally well tolerated and free from any apparent toxicity,failed to disclose any modification of inflammatory or degenerative type,equally well tolerated and free from any apparent toxicity,non-hygroscopic stable,80
